The text below walks through data of PMC10002984, “Dual PTP1B/TC-PTP Inhibitors: Biological Evaluation of 3-(Hydroxymethyl)cinnoline-4(1H)-Ones” (International Journal of Molecular Sciences, 2023).

Assay [1] deals with male rats with HFD-induced obesity. Put plainly: Blood glucose, insulin and leptin levels and insulin resistance index in obese rats. The format is in vivo, male Wistar rats. The conditions noted are these: for Glucose, After / Insulin, After / Leptin, After / Glucose, Before / Insulin, Before / Leptin, Before: blood, M ± SEM, n = 5; for Glucose, After / Insulin, After / Leptin, After / IR (insulin resistance index), After: after five-day i.p. treatment, 7 mg/kg (1, 2), 8 mg/kg (3), 10 mg/kg (4); for Glucose, Before / Insulin, Before / Leptin, Before / IR (insulin resistance index), Before: before treatment (baseline); for IR (insulin resistance index), After / IR (insulin resistance index), Before: product of blood glucose and insulin concentrations. As to the method:
Further, six groups were formed: control (Con, n = 10), obesity (Ob, n = 10), obese rats with five-day treatment with compounds 1 (Ob + 1, n = 5), 2 (Ob + 2, n = 5), 3 (Ob + 3, n = 10), and 4 (Ob + 4, n = 10). All compounds were administered in DMSO (300 µL) at a daily dose of 7 mg/kg (1 and 2), 8 mg/kg (3), and 10 mg/kg (4) (i.p.), based on the results of the preliminary experiments. The used doses of compounds 1–4, in terms of the number of moles of each compound per kg of animal body weight, were equivalent. Control and obese rats received DMSO in the same volumes (300 µL), instead of the tested compounds. During the five days of the experiment, all animals were transferred to standard food and had free access to food and drinking water. […] The test was carried out on the morning of the next day after the last (fifth) injection of the compounds or DMSO, after a 10 h fast. The rest of the animals (n = 5 in each group) were anesthetized and decapitated on the last day of the experiment. The blood and liver samples were taken to measure blood glucose and hormone levels and gene expression in the liver.
The glucose levels in the blood obtained from the tail vein were measured using a glucometer (Life Scan Johnson & Johnson, Denmark) and the test strips “One Touch Ultra” (USA). The levels of insulin and leptin in rat serum were estimated with the “Rat Insulin ELISA” (Mercodia AB, Uppsala, Sweden) and “ELISA for Leptin, Rat” (Cloud-Clone Corporation, Houston, TX, USA) kits. The GTT was carried out using a single injection of glucose (2 g/kg, i.p.) after 10 h of fasting, as described earlier. The blood glucose levels were measured before (0 min) and 15, 30, 60, and 120 min after the glucose load.

The target in assay [2] is T1, recombinant human PTP1B protein (Homo sapiens, UniProt P18031).
T1 construct: purchased Abcam ab51277
T1 sequence (P18031 1-321 limits assumed): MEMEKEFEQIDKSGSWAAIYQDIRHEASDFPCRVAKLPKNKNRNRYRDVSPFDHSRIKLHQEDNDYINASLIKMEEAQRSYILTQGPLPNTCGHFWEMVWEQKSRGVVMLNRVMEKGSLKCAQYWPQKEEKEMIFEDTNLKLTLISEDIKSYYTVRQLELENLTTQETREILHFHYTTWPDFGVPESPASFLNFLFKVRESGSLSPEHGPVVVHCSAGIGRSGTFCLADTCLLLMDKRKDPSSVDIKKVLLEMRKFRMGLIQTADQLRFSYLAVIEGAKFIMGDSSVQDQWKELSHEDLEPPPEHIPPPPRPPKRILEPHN
Kind of assay: Phosphatase activity assay with DiFMUP, PTP1B inhibition. In kind it is biochemical. The conditions noted are these: for IC50: DiFMUP 25 µM, 80 ng/mL PTP1B, compounds 0.1–80 μM, M ± SEM (n = 24), read-out: IC50 for the inhibitory effect on PTP1B activity. As for the experimental part:
The measurement of the activity of the phosphatases PTP1B and TC-PTP and their inhibition was carried out using 6,8-difluoro-4methylumbelliferyl phosphate (DiFMUP), as previously described. The stock solution of recombinant human PTP1B protein (#ab51277, Abcam, Cambridge, UK), at a concentration of 1 µg/µL, was prepared in 25 mM Tris–HCl (pH 7.5), 20% glycerol, 2 mM β-mercaptoethanol, 1 mm EDTA, and 1 mM DTT, and stored at −20 °C. Active human recombinant TC-PTP protein was purchased from Sigma-Aldrich (#SRP0218, Saint Louis, MO, USA) as the aqueous buffer solution at a concentration of 2.9 mg/mL, and aliquots were stored at −80 °C. The fluorogenic substrate DiFMUP (#D6567, Molecular Probes, Thermo Fisher Scientific, Waltham, MA, USA) was dissolved at a concentration of 10 mM in N,N-dimethylformamide and stored in aliquots at −20 °C. The 6,8-difluoro-7-hydroxy-4-methylcoumarin (DiFMU, #D6566, Molecular Probes, Thermo Fisher Scientific, Waltham, MA, USA) was used as a reference fluorescent standard. For the IC50 determination, the assay was carried out in black flat bottom 96-well plates using a reaction volume of 100 µL. The phosphatases (PTP1B or TC-PTP) were preincubated with the tested compounds (0.1–80 µM) in 50 mM HEPES (pH 6.9), 100 mM NaCl, 1 mM EDTA, 2 mM DTT, 0.1 mg/mL BSA for 5 min at 37 °C. The following concentrations of the compounds were studied: 0.1, 0.2, 0.5, 1, 2, 5, 10, 20, 40, and 80 μM. The reactions were initiated by the addition of the fluorogenic substrate DiFMUP and diluted in the assay buffer. Progress curves for hydrolysis reaction were obtained with 25 µM of DiFMUP for 80 ng/mL PTP1B, and 35 µM of DiFMUP for 80 ng/mL TC-PTP. Fluorescence excitation of hydrolyzed DiFMUP and the fluorescent standard DiFMU was monitored at 355 nm and emission was detected at 460 nm for 6–10 min at 30 s intervals in a Fluoroskan Ascent FL microplate reader (Thermo Electron Corporation, Vantaa, Finland). Initial velocities of the reactions were used to calculate the IC50 values using GraphPad Prism.
The data on food intake, body weight, and biochemical parameters in rats, as well as the PCR data, were analyzed using the IBM SPSS Statistics 22 software (“IBM”, Armonk, NY, USA), and the results are presented as mean ± standard error of the mean (M ± SEM). All differences are considered significant at p < 0.05. The calculation of the IC50 values of the studied inhibitors for the initial velocities of enzymatic reactions (PTP1B, TC-PTP) was carried out using the nonlinear regression analysis with GraphPad Prism 8 (“GraphPad Software, Inc.”, Boston, MA, USA). The statistical analysis was carried out using the Wilcoxon test for pairwise comparison and Dunn’s test for multiple comparisons.

Each structure is given as a SMILES string. Marks after values point to notes of the source that are not given here.

In general, IC50 refers to the point on the concentration scale where inhibition reaches its midpoint. For `O=c1c(CO)n[nH]c2ccccc12` [Compound 1], in assay [1], the “Glucose, After” value was 5.74 ± 0.07 ^a mM; the “Insulin, After” value was 1.11 ± 0.14 ^a ng/mL; the “Leptin, After” value is on record as 1.72 ± 0.24 ^b,c ng/mL; the “Glucose, Before” value is 5.94 ± 0.22 ^a mM. Besides, in assay [1], the “Insulin, Before” value is reported as 1.57 ± 0.16 ^a ng/mL; the “Leptin, Before” value was 3.06 ± 0.40 ^a ng/mL; the “IR (insulin resistance index), After” value is 6.32 ± 0.77 ^a arb.Units; the “IR (insulin resistance index), Before” value is 9.46 ± 1.31 ^a arb.Units. Further, the half-inhibitory concentration (IC50) in assay [2] is 3.78 ± 0.34 µM. The “selectivity for PTP1B compared to that for TC-PTP” value in assay [2] (from IC50 values of Table 1) is recorded as 5–7 fold.

In the case of `O=c1c(CO)n[nH]c2ccc(Cl)cc12` [Compound 3, 6-Chloro-3-(hydroxymethyl)cinnolin-4(1H)-one], in assay [1], the “Glucose, After” value is listed as 5.36 ± 0.31 ^a mM; the “Insulin, After” value is 0.93 ± 0.13 ^b,c ng/mL; the “Leptin, After” value is recorded as 1.52 ± 0.21 ^b,c ng/mL; the “Glucose, Before” value is 5.80 ± 0.31 ^a mM. In assay [1], the “Insulin, Before” value is recorded as 1.51 ± 0.18 ^a ng/mL; the “Leptin, Before” value was 2.93 ± 0.42 ^a ng/mL; the “IR (insulin resistance index), After” value was 5.12 ± 0.97 ^b arb.Units; the “IR (insulin resistance index), Before” value is given as 8.96 ± 1.46 ^a arb.Units. Moreover, the “insulin resistance index compared to the Ob group” value in assay [1] (five-day treatment, 3 8 mg/kg/day) is recorded as “significantly reduced”. In addition, the IC50 in assay [2] worked out at 5.11 ± 0.57 µM.

Regarding `O=c1c(CO)n[nH]c2ccc(Br)cc12` [Compound 4, 6-Bromo-3-(hydroxymethyl)cinnolin-4(1H)-one], in assay [1], the “Glucose, After” value is 5.24 ± 0.25 ^a mM; the “Insulin, After” value is recorded as 1.06 ± 0.13 ^a,c ng/mL; the “Leptin, After” value is reported as 1.90 ± 0.16 ^a,b,c ng/mL; the “Glucose, Before” value is recorded as 5.72 ± 0.30 ^a mM. Also, in assay [1], the “Insulin, Before” value is 1.65 ± 0.18 ^a ng/mL; the “Leptin, Before” value is on record as 3.17 ± 0.25 ^a ng/mL; the “IR (insulin resistance index), After” value was 5.61 ± 0.89 ^a arb.Units; the “IR (insulin resistance index), Before” value is 9.63 ± 1.57 ^a arb.Units. Besides, the IC50 in assay [2] was 11 ± 1.34 µM.
